Test results from patent publication US5026832A, “9-dihydro-9-O-alkyldesmycosin derivatives” (Toyo Jozo Co., Ltd., priority 1988, dated 1991).
Values after ≈ are worked out from the molar mass of the structure shown. Like-named read-outs stand apart in the source and are kept apart here.

Experiments:
[1] = test system: Staphylococcus epidermidis sp-al-1; test: Antimicrobial activity (minimum inhibitory concentration); type: cell-based; conditions: SPAL1; Staphylococcus epidermidis sp-al-1, about 10^6 /ml
Description: (§1) Minimum inhibitory concentrations (MIC, μg/ml) of various compounds of formula (I) against various microorganisms (about 10^6 /ml) were measured.

[2] = test system: Staphylococcus pyogenes S-23; test: as above; type: cell-based; conditions: Staphylococcus aureus, S23; Staphylococcus pyogenes S-23, about 10^6 /ml
Description: as §1

[3] = test system: Staphylococcus pyogenes N.Y.5; test: as above; type: cell-based; conditions: Staphylococcus pyogenes N.Y.5, about 10^6 /ml
Description: as §1

[4] = test system: Staphylococcus aureus Smith; test: as above; type: cell-based; conditions: about 10^6 /ml
Description: as §1

[5] = test system: Staphylococcus aureus MS 353 C36; test: as above; type: cell-based; conditions: MS353C36; Staphylococcus aureus MS 353 C36, about 10^6 /ml
Description: as §1

[6] = test system: Staphylococcus aureus FDA 209P JC-1; test: as above; type: cell-based; conditions: FDA209P; Staphylococcus aureus FDA 209P JC-1, about 10^6 /ml
Description: as §1

[7] = test system: Staphylococcus aureus MS 353; test: as above; type: cell-based; conditions: MS353; Staphylococcus aureus MS 353, about 10^6 /ml
Description: as §1

[8] = test system: Staphylococcus pyogenes 1022; test: as above; type: cell-based; conditions: Staphylococcus pyogenes 1022, about 10^6 /ml
Description: as §1

[9] = test system: Staphylococcus pyogenes S-23; test: Infectious disease curing effect by oral administration in infected mice; type: in vivo, ICR male mice; conditions: Staphylococcus aureus
Description: A pre-incubated test microorganism, Staphylococcus pyogenes S-23, was suspended in a 5% mucin solution and inoculated into the ICR male mice (8 mice per group) abdomen in an amount of 2×10^2. After 1 hour, Compounds (I) of the present invention dissolved or suspended in a phosphate buffer were orally administered to the mice. The mice were inspected for 5 days to determine ED50 (mg/kg) by the Van der Waerden method.

[10] = S23, 120 h, oral, 1 hour after abdominal inoculation of Staphylococcus pyogenes S-23, inspected for 5 days, Van der Waerden method, read-out: ED50

| SMILES | MIC [1] [µg/mL] | MIC [2] [µg/mL] | MIC [3] [µg/mL] | MIC [4] [µg/mL] | MIC [5] [µg/mL] | MIC [6] [µg/mL] | MIC [7] [µg/mL] | MIC [8] [µg/mL] | ED50 [9, 10] [mg/kg] | ED50 ([9]; S23, po, 120 h) [mg/kg] |
| --- | --- | --- | --- | --- | --- | --- | --- | --- | --- | --- |
| CCCOC1C=CC(C)=CC(COC2OC(C)C(O)C(OC)C2OC)C(CC)OC(=O)CC(O)C(C)C(OC2OC(C)C(O)C(N(C)C)C2O)C(CC=O)CC1C (centres unmarked) [Compound 3, 9-dihydro-9-O-propyldesmycosin] | 0.2 (≈ 0.245 µM) | 0.1 (≈ 0.123 µM) | ≤ 0.05 | 0.39 (≈ 0.478 µM) | 0.2 (≈ 0.245 µM) | 0.1 (≈ 0.123 µM) | 0.2 (≈ 0.245 µM) | > 100 |  |  |
| CCCCOC1C=CC(C)=CC(COC2OC(C)C(O)C(OC)C2OC)C(CC)OC(=O)CC(O)C(C)C(OC2OC(C)C(O)C(N(C)C)C2O)C(CC=O)CC1C (centres unmarked) [Compound 4, 9-dihydro-9-O-butyldesmycosin] | 0.39 (≈ 0.47 µM) | 0.2 (≈ 0.241 µM) | 0.1 (≈ 0.12 µM) | 0.78 (≈ 0.94 µM) | 0.39 (≈ 0.47 µM) | 0.39 (≈ 0.47 µM) | 0.39 (≈ 0.47 µM) | > 100 |  |  |
| CCC1OC(=O)CC(OC(C)=O)C(C)C(OC2OC(C)C(O)C(N(C)C)C2O)C(CC=O)CC(C)C(OC)C=CC(C)=CC1COC1OC(C)C(O)C(OC)C1OC (centres unmarked) [Compound 12, 9-dihydro-9-O-methyl-3-O-acetyldesmycosin] | 0.39 (≈ 0.47 µM) | 0.1 (≈ 0.12 µM) | 0.1 (≈ 0.12 µM) | 0.39 (≈ 0.47 µM) | 0.2 (≈ 0.241 µM) | 0.2 (≈ 0.241 µM) | 0.2 (≈ 0.241 µM) | > 100 |  |  |
| CCC1OC(=O)CC(O)C(C)C(OC2OC(C)CC(N(C)C)C2O)C(CC=O)CC(C)C(=O)C=CC(C)=CC1COC1OC(C)C(O)C(OC)C1OC (centres unmarked) [4'-Deoxydesmycosin, reference compound] |  |  |  |  |  |  |  |  | > 200 |  |
| CCC1OC(=O)CC(O)C(C)C(OC2OC(C)C(O)C(N(C)C)C2O)C(CC=O)CC(C)C(=O)C=CC(C)=CC1COC1OC(C)C(O)C(OC)C1OC (centres unmarked) [Desmycosin, 4'-demycarosyltylosin] | 0.2 (≈ 0.259 µM) | ≤ 0.05 | ≤ 0.05 | 0.39 (≈ 0.505 µM) | 0.2 (≈ 0.259 µM) | 0.2 (≈ 0.259 µM) | 0.2 (≈ 0.259 µM) | > 100 |  |  |
| CCC1OC(=O)CC(O)C(C)C(OC2OC(C)C(O)C(N(C)C)C2O)C(CC=O)CC(C)C(OCc2ccccc2)C=CC(C)=CC1COC1OC(C)C(O)C(OC)C1OC (centres unmarked) [Compound 18, 9-dihydro-9-O-benzyldesmycosin] | 0.39 (≈ 0.451 µM) | 0.1 (≈ 0.116 µM) | 0.1 (≈ 0.116 µM) | 0.39 (≈ 0.451 µM) | 0.2 (≈ 0.231 µM) | 0.2 (≈ 0.231 µM) | 0.2 (≈ 0.231 µM) | 100 (≈ 116 µM) |  |  |
| CCCOC1C=CC(C)=CC(COC2OC(C)C(O)C(OC)C2OC)C(CC)OC(=O)CC(OC(C)=O)C(C)C(OC2OC(C)C(O)C(N(C)C)C2O)C(CC=O)CC1C (centres unmarked) [Compound 9, 9-dihydro-9--O-propyl-3-O-acetyldesmycosin] | 0.78 (≈ 0.909 µM) | 0.2 (≈ 0.233 µM) | 0.2 (≈ 0.233 µM) | 0.78 (≈ 0.909 µM) | 0.78 (≈ 0.909 µM) | 0.39 (≈ 0.455 µM) | 0.39 (≈ 0.455 µM) | > 100 |  |  |
| CCC1OC(=O)CC(O)C(C)C(OC2OC(C)C(O)C(N(C)C)C2O)C(CC=O)CC(C)C(OC)C=CC(C)=CC1COC1OC(C)C(O)C(OC)C1OC (centres unmarked) [Compound 1, 9-dihydro-9-O-methyldesmycosin] | ≤ 0.05 | ≤ 0.05 | ≤ 0.05 | 0.39 (≈ 0.495 µM) | 0.2 (≈ 0.254 µM) | 0.1 (≈ 0.127 µM) | 0.2 (≈ 0.254 µM) |  | 100 to 200 |  |
| CCOC1C=CC(C)=CC(COC2OC(C)C(O)C(OC)C2OC)C(CC)OC(=O)CC(O)C(C)C(OC2OC(C)C(O)C(N(C)C)C2O)C(CC=O)CC1C (centres unmarked) [Compound 2, 9-dihydro-9-O-ethyldesmycosin] | 0.1 (≈ 0.125 µM) | ≤ 0.05 | ≤ 0.05 | 0.2 (≈ 0.249 µM) | 0.1 (≈ 0.125 µM) | 0.1 (≈ 0.125 µM) | 0.2 (≈ 0.249 µM) | > 100 |  |  |
| CCC1OC(=O)CC(OC(C)=O)C(C)C(OC2OC(C)CC(N(C)C)C2O)C(CC=O)CC(C)C(OC)C=CC(C)=CC1COC1OC(C)C(O)C(OC)C1OC (centres unmarked) [Compound 13, 9-dihydro-9-O-methyl-3-O-acetyl-4'-deoxydesmycosin] | 0.39 (≈ 0.479 µM) | 0.1 (≈ 0.123 µM) | 0.1 (≈ 0.123 µM) | 0.39 (≈ 0.479 µM) | 0.2 (≈ 0.246 µM) | 0.2 (≈ 0.246 µM) | 0.2 (≈ 0.246 µM) | > 100 |  |  |
| CCOC1C=CC(C)=CC(COC2OC(C)C(O)C(OC)C2OC)C(CC)OC(=O)CC(OC(=O)CC)C(C)C(OC2OC(C)C(O)C(N(C)C)C2O)C(CC=O)CC1C (centres unmarked) [Compound 10, 9-dihydro-9-O-ethyl-3-O-propionyldesmycosin] | 0.78 (≈ 0.909 µM) | 0.39 (≈ 0.455 µM) | 0.1 (≈ 0.117 µM) | 0.78 (≈ 0.909 µM) | 0.39 (≈ 0.455 µM) | 0.2 (≈ 0.233 µM) | 0.39 (≈ 0.455 µM) | > 100 |  |  |
| CCC1OC(=O)CC(O)C(C)C(OC2OC(C)C(O)C(N(C)C)C2O)C(CC=O)CC(C)C(OCC2CCC2)C=CC(C)=CC1COC1OC(C)C(O)C(OC)C1OC (centres unmarked) [Compound 15, 9-dihydro-9-O-cyclobutylmethyldesmycosin] | 0.78 (≈ 0.926 µM) | 0.2 (≈ 0.238 µM) | ≤ 0.05 | 0.78 (≈ 0.926 µM) | 0.39 (≈ 0.463 µM) | 0.39 (≈ 0.463 µM) | 0.39 (≈ 0.463 µM) | 50 (≈ 59.4 µM) |  |  |
| CCC1OC(=O)CC(O)C(C)C(OC2OC(C)C(O)C(N(C)C)C2O)C(CC=O)CC(C)C(OCC2CCCCC2)C=CC(C)=CC1COC1OC(C)C(O)C(OC)C1OC (centres unmarked) [Compound 16, 9-dihydro-9-O-cyclohexylmethyldesmycosin] | 1.56 (≈ 1.79 µM) | 0.39 (≈ 0.448 µM) | 0.39 (≈ 0.448 µM) | 1.56 (≈ 1.79 µM) | 0.78 (≈ 0.896 µM) | 0.78 (≈ 0.896 µM) | 0.39 (≈ 0.448 µM) | 50 (≈ 57.5 µM) |  |  |
| CCC1OC(=O)CC(O)C(C)C(OC2OC(C)C(O)C(N(C)C)C2O)C(CC=O)CC(C)C(OCC(C)C)C=CC(C)=CC1COC1OC(C)C(O)C(OC)C1OC (centres unmarked) [Compound 17, 9-dihydro-9-O-isobutyldesmycosin] | 0.39 (≈ 0.47 µM) | 0.2 (≈ 0.241 µM) | 0.1 (≈ 0.12 µM) | 0.78 (≈ 0.94 µM) | 0.39 (≈ 0.47 µM) | 0.39 (≈ 0.47 µM) | 0.39 (≈ 0.47 µM) | > 100 |  |  |
| CC[C@H]1OC(=O)C[C@@H](O)[C@H](C)[C@@H](O[C@@H]2O[C@H](C)[C@@H](O[C@H]3C[C@@](C)(O)[C@@H](O)[C@H](C)O3)[C@H](N(C)C)[C@H]2O)[C@@H](CC=O)C[C@@H](C)C(=O)/C=C/C(C)=C/[C@@H]1CO[C@@H]1O[C@H](C)[C@@H](O)[C@@H](OC)[C@H]1OC [Tylosin, reference compound] |  |  |  |  |  |  |  |  |  | > 200 |
| CCCOC1C=CC(C)=CC(COC2OC(C)C(O)C(OC)C2OC)C(CC)OC(=O)CC(OC(=O)CC)C(C)C(OC2OC(C)C(O)C(N(C)C)C2O)C(CC=O)CC1C (centres unmarked) [Compound 11, 9-dihydro-9-O-propyl-3-O-propionyldesmycosin] | 0.39 (≈ 0.447 µM) | 0.2 (≈ 0.229 µM) | 0.1 (≈ 0.115 µM) | 0.78 (≈ 0.894 µM) | 0.39 (≈ 0.447 µM) | 0.2 (≈ 0.229 µM) | 0.2 (≈ 0.229 µM) | 100 (≈ 115 µM) |  |  |
| CCC1OC(=O)CC(O)C(C)C(OC2OC(C)C(O)C(N(C)C)C2O)C(CC=O)CC(C)C(OCC2CC2)C=CC(C)=CC1COC1OC(C)C(O)C(OC)C1OC (centres unmarked) [Compound 14, 9-dihydro-9-O-cyclopropylmethyldesmycosin] | 0.2 (≈ 0.242 µM) | ≤ 0.05 | 0.1 (≈ 0.121 µM) | 0.39 (≈ 0.471 µM) | 0.2 (≈ 0.242 µM) | 0.2 (≈ 0.242 µM) | 0.2 (≈ 0.242 µM) | > 100 |  |  |
